The values that follow come from patent US6881584B1, “Infrared thermography” (SmithKline Beecham Corporation, priority 1998, dated 2005).

Series [1] deals with C3H10T1/2 adipocytes. Kind of series: Infrared thermography of thermogenesis in cultured adipocytes (β-AR-agonists). Conditions: for EC50: Mus musculus. Type of series: cell-based. The protocol: (§1) Human subcutaneous adipocytes were purchased from Zen-Bio, Inc. (Research Triangle Park, N.C.). C3H10T1/2 clone 8 fibroblasts were differentiated into adipocytes as previously described (Lenhard et al, Biochem. Pharmacol. 54:801-808 (1997), Paulik and Lenhard, Cell Tissue Res. 290:79-87 (1997)). After 7 days in culture, triglyceride accumulation was determined by adding lipoprotein lipase and GPO-Trinder reagent (assay kit 337-B, Sigma Diagnostics, St. Louis, Mo.) to the cells (50 μl/cm^2) and incubating the lysates at 37° C. for 2 hours. The optical density was measured using a spectrophotometer set at a wavelength of 540 nm. Lipolysis was measured as previously described (Lenhard et al, Biochem. Pharmacol. 54:801-808 (1997)).
(§2) Heat generation was measured using a Stirling cooled Agema Thermovision 900 Infrared System AB (Marietta, Ga.) equipped with a SW Scanner and 40°×25° lens which detects a 2-5.4 micron spectral response. […] The focal distance was 6 cm. Images were captured using a recurs function set at 16 or an averaging function set at 32. The data was analyzed using OS-9 advanced systems and ERIKA 2.00 software according to the manufacturer's specifications (FLIR Infrared Systems AB, Danderyd, Sweden). Thermography of adipocytes was performed by maintaining the ambient temperature of the cultured cells at 37±0.02° C. using a Queue Systems Inc. (Parkersburg, W.Va.) incubator, model QWJ500SABA. Spectral analysis of yeast was performed at 30±0.02° C. using the same incubator system. After treating the cells with experimental agents (e.g., rotenone etc.), the temperature was equilibrated for 10 minutes in the incubator before measuring real time thermogenesis for all microtiter plate applications. Various color scales in the visible wavelength were used to depict the temperature fluctuations of the recorded images. Although temperature scales are constant, the color scale images are variable and can be adjusted with level and span controls.
The β3-AR-agonists are candidate therapeutic agents for the treatment of diabetes and obesity. Although, the mechanism of action for these agents is thought to involve increased metabolic rate (Scarpace, Ann. N.Y. Acad. Sci. 813:111-116 (1997)), it has yet to be shown that β-AR-agonists increase heat output by adipocytes. Therefore, it was determined whether infrared imaging could be used to monitor the effects of β-AR-agonists on thermogenesis in cultured adipocytes.
(§3) As a control, the effects of β-AR-agonists on lipolysis was also measured. […] In general, this expands to measuring thermogenic activity of both catabolic and anabolic mediated-effects of potential drug candidates.

The subject of series [2] is UCP2. Kind of series: Infrared thermography of yeast expressing UCP2. Type of series: cell-based. Conditions: galactose-induced UCP2. The protocol: Human skeletal muscle cDNA (#7175-1) was purchased from Clontech (Palo Alto, Calif.). UCP2 specific-sequences were PCR amplified from the sample using oligonucleotide primers that matched the 5′ and 3′ ends of a published sequence (GenBank U82819). Vent polymerase was used (New England Biolabs, Beverly, Mass.) in a standard reaction mixture with 2 mM MgSO4 and 5% DMSO. The cycle parameters were 94° C. for 1 min., 55° C. for 1 min., and 72° C. for 1 min., repeated 29 times. The sample was passed over an S-400 spin column (Pharmacia, Piscataway, N.J.) prior to ligation in a vector for transformation of E. coli. The authenticity of the clone was confirmed by DNA sequence analysis. For the experiments in yeast, the UCP2 coding sequence was amplified by PCR using primers with the sequence […] AAGGCCA (SEQ ID NO:1) (sense) and […] (SEQ ID NO:2) (antisense) followed by a second PCR using primers with the sequence […] (SEQ ID NO:3) (sense) and […] (SEQ ID NO:4) (antisense). The PCR product was cloned into pYX233 (R&D Systems) by homologous recombination in yeast strain W303 (a/a homozygous for ade2-1, his3-1, 15 leu2-3, 112, trp1-1, ura3-1). Yeast transformants were selected on BSM-trp agar (Bio 101, Vista, Calif.). The correct UCP2 sequence was verified by sequencing plasmids back-extracted from yeast to E. coli. […]

The subject of series [3] is yeast. Type of series: cell-based. Conditions: dose response, relative to untreated cells.
Method: Heat generation was measured using a Stirling cooled Agema Thermovision 900 Infrared System AB (Marietta, Ga.) equipped with a SW Scanner and 40°×25° lens which detects a 2-5.4 micron spectral response. […] The focal distance was 6 cm. Images were captured using a recurs function set at 16 or an averaging function set at 32. The data was analyzed using OS-9 advanced systems and ERIKA 2.00 software according to the manufacturer's specifications (FLIR Infrared Systems AB, Danderyd, Sweden). […] Spectral analysis of yeast was performed at 30±0.02° C. using the same incubator system. After treating the cells with experimental agents (e.g., rotenone etc.), the temperature was equilibrated for 10 minutes in the incubator before measuring real time thermogenesis for all microtiter plate applications. Various color scales in the visible wavelength were used to depict the temperature fluctuations of the recorded images. Although temperature scales are constant, the color scale images are variable and can be adjusted with level and span controls.
For series [4], the system named is human adipocytes. In words: Infrared thermography of human adipocytes in 96-well plates. The series is classed as cell-based. Conditions: dose response, relative to untreated cells.
Method: Heat generation was measured using a Stirling cooled Agema Thermovision 900 Infrared System AB (Marietta, Ga.) equipped with a SW Scanner and 40°×25° lens which detects a 2-5.4 micron spectral response. […] The focal distance was 6 cm. Images were captured using a recurs function set at 16 or an averaging function set at 32. The data was analyzed using OS-9 advanced systems and ERIKA 2.00 software according to the manufacturer's specifications (FLIR Infrared Systems AB, Danderyd, Sweden). Thermography of adipocytes was performed by maintaining the ambient temperature of the cultured cells at 37±0.02° C. using a Queue Systems Inc. (Parkersburg, W.Va.) incubator, model QWJ500SABA. […] After treating the cells with experimental agents (e.g., rotenone etc.), the temperature was equilibrated for 10 minutes in the incubator before measuring real time thermogenesis for all microtiter plate applications. Various color scales in the visible wavelength were used to depict the temperature fluctuations of the recorded images. Although temperature scales are constant, the color scale images are variable and can be adjusted with level and span controls.
In series [5] the test system is C3H10T1/2 adipocytes. Kind of series: Lipolysis in adipocytes treated with β-AR-agonists. The series is classed as cell-based. Conditions: Mus musculus, C3H 10T1/2, read-out: EC50 (nM) Lipolysis. On the procedure:
as §1, §3

Series [6] deals with T1, beta 3 adrenergic receptor (β3AR) (Homo sapiens, UniProt P13945).
T1 construct: expressed in transfected cells; host or cells: Chinese Hamster Ovary (CHO) cells
Kind of series: Infrared thermography of CHO cells overexpressing the β3AR receptor. The series is classed as cell-based. The protocol: as §2

Series [7] concerns thoracic area. In words: Infrared thermography of thoracic area of nude mice treated with inhalant. Conditions: vs vehicle. The series is classed as in vivo. The protocol:
(§4) Male AKR/J, C57BL/6J, and SWR/J mice were purchased from 4-8 weeks of age from Jackson Laboratories (Bar Harbor, Me.). Mice were fed high and low fats diets containing high sucrose as defined by Surwit et al., (Metabolism 44(5):645-651 (1995)). After 14 weeks on these diets, the intrascapular fur was shaved, the animals were dosed (intraperitineal) with 1 mg/kg of BRL37344, and the animals were anesthetized with isofluorane. Nude mice (BALB/C) were 6-8 weeks old and were dosed with inhalant two times before thermal profiling. The Lewis rat strain (200-250 g) were used for both the MED and inflammation experiments. Infrared thermographic images and temperature calculations were recorded using an Agema Thermovision 900 Infrared System.
Furthermore, the bioavailability and bioactivity of inhalants in animals and man is often difficult to measure and quantitate. Assays available for measuring bioavailabilty of inhalants involve measuring the uptake of radiolabeled inhalant in selected tissues (eg. lung). Infrared thermography provides a non-invasive method for measuring the bioavailibilty/bioactivity of inhalant compounds. Thus, infrared thermography was used to measure the thermal activity induced by an inhalant in the thoracic area of nude mice.

Series [8] has as its system liver. Type of series: in vivo. Conditions: ob/ob mice, 0.1-1 mg/kg i.p., 90 minutes, dose-dependent. The protocol:
FIG. 29. Liver thermogenesis in ob/ob mice 90 minutes after treatment with lipopolysaccharide (LPS) detected by IR thermography. Male ob/ob mice were housed and maintained as described in FIG. 1. Mice were dosed at 0.0, 0.1, 0.3, or 1 mg/kg LPS in water vehicle (0.5 mL i.p.; n=10 per dose) and anesthetized using isoflurane as described above 90 minutes after treatment. The abdomens of the anesthetized mice were surgically opened to expose the liver and Bioclusive adhesive was placed over the entire exposed area. IR images of the liver region were acquired and analyzed as detailed in FIG. 28. […] Quantification of the IR signal in the liver region is shown in the bottom panel. Data are means±SEM for n=10 animals per group. Asterisks (*) denote statistical differences from control (p<0.05, ANOVA with Student-Newman-Keuls post hoc tests).
Use of IR transparent adhesive to image liver thermogenesis in vivo. […] Indeed, temperature measurements obtained by IR thermography correlated well with liver toxicity measured as AST release (r=0.99). In addition, temperature changes measured using IR thermography correlated with alanine aminotransferase (ALT) release, another marker of liver injury (r=0.76, data not shown).

The test system of series [9] is C3H10T1/2 cells. Kind of series: Infrared thermography of heat production in differentiating C3H10T1/2 cells (PPARγ agonists). Type of series: cell-based. Conditions: in the presence of insulin and 9-cis retinoic acid (FIG. 7), read-out: EC50(μM), thermogenesis and lipogenesis assays. On the procedure: as §1
Heat generation was measured using a Stirling cooled Agema Thermovision 900 Infrared System AB (Marietta, Ga.) equipped with a SW Scanner and 40°×25° lens which detects a 2-5.4 micron spectral response. […] The focal distance was 6 cm. Images were captured using a recurs function set at 16 or an averaging function set at 32. The data was analyzed using OS-9 advanced systems and ERIKA 2.00 software according to the manufacturer's specifications (FLIR Infrared Systems AB, Danderyd, Sweden). […] Various color scales in the visible wavelength were used to depict the temperature fluctuations of the recorded images. […]

In series [10] the test system is intrascapular brown adipose tissue (IBAT). Kind of series: IBAT thermogenesis in ob/ob mice treated with PPARγ agonist. The series is classed as in vivo. Conditions: two weeks treatment, compared to control animals. The protocol: as §2
Series [11] concerns hair-loss. In words: Chemotherapy-induced hair-loss by infrared thermography in newborn pups treated in utero. The series is classed as in vivo, rat. Conditions: 6 mg/kg. An excerpt:
Hair loss can result from undesirable side-effects of various therapies (e.g., radiation treatment of cancer patients, surgery etc.) and can occur naturally with age, whereas surgical or pharmacological intervention can restore hair growth. Since hair provides insulation against heat loss and aids in the maintenance of a constant body temperature, it was of interest to determine if infrared thermography can be used to measure hair loss. The lack of progress in the treatment and prevention of chemotherapy-induced alopecia is in part due to the lack of a reproducible animal model as well as a quantitative method to measure hair-loss. To determine if infrared imaging can be used to quantitatively measure chemotherapy induced hair-loss, newborn rat pups that were treated in utero with the known cancer agent, etoposide, were thermally profiled for hair-loss.

The test system of series [12] is genitalia. Kind of series: Thermogenesis in rat genitalia (male erectile dysfunction). The series is classed as in vivo. Conditions: rats, 2 hours after PO dosing, 3.0 or 0.3 mg/kg. On the procedure:
as §4
Male erectile dysfunction (MED) is treatable with drugs that increase blood flow to the genitalia. Increased local thermogenesis is associated with increased local blood flow. One drug that acts in this manner and treats MED is Pinacidil. […] Thus, infrared thermography provides a quantitative and non-invasive method for identifying and evaluating drug candidates for the MED indication as well as identifying candidates that can cause erection as a side effect.

In series [13] the test system is HUVEC cells. Conditions: 10 minutes. On the procedure:
as §2

Series [14] relates to tissue vascularization. Conditions: nude mice, vs control injection.
Method: Nude mice were injected with either VEGF peptide or a control followed by themographic imaging of both injection sites.

T1 sequence (P13945 whole entry): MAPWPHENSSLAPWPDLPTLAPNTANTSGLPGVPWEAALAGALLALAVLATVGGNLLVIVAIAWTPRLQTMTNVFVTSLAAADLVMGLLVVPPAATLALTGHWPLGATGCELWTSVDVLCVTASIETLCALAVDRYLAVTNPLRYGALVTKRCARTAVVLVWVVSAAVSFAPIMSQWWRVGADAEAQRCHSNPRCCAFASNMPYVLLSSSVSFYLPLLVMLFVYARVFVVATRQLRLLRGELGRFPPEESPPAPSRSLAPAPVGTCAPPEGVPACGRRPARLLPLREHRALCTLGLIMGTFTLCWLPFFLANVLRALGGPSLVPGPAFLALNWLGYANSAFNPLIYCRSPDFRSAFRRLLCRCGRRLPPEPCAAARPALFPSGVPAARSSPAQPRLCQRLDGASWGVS

Consider `C=C(C)[C@H]1Cc2c(ccc3c2O[C@@H]2COc4cc(OC)c(OC)cc4[C@@H]2C3=O)O1` [Rotenone], for which, in series [1] (C3H 10T1/2, read-out: EC50 (nM) Thermogenesis), the EC50 (in general, the midpoint of the concentration-response curve) came to 8.5 nM. For the same compound, in series [1] (cells treated with 50 nM of the various β-AR-agonists), the “thermogenesis of cells treated with β-AR-agonists” value was “inhibited thermogenesis”. In addition, the UCP2-mediated thermogenesis result in [2] was “inhibited”. Besides, the thermogenesis in yeast entry in series [3] is on record as “inhibited thermogenesis”. In addition, in series [4], the “thermogenesis in human adipocytes” value is given as “inhibited thermogenesis”.
For the compound `CC(C)NCC(O)c1ccc(O)c(O)c1` (centres unmarked) [Isoproterenol], the stimulation of thermogenesis result in series [1] (C3H10T1/2 adipocytes) is on record as “stimulated”. The half-maximal effective concentration (EC50) was 28 nM in series [1] (C3H 10T1/2, adipocytes, infrared thermography, dose response, read-out: EC50 (nM) Thermogenesis) and 27.1 nM in series [5]. For the same compound, the “thermogenic response of CHO cells” value in series [6] is given as “responsive in a dose-dependent manner”.
In the case of `CC(C)(C)NCC(O)c1ccc(O)c(CO)c1` (centres unmarked) [Albuterol], the torso area temperature result in [7] was “torso temperature increases after 2.5 minutes”.
Consider lipopolysaccharide [LPS], for which the liver thermogenesis result in [8] is “thermogenesis is increased”.
As for `CN(CCOc1ccc(C[C@H](Nc2ccccc2C(=O)c2ccccc2)C(=O)O)cc1)c1ccccn1` [GW1929], the EC50 in series [9] stood at 0.052 µM. In addition, the IBAT thermogenesis entry in series [10] was “reduction in IBAT thermogenesis”.
`COc1cc([C@@H]2c3cc4c(cc3[C@@H](O[C@@H]3O[C@@H]5CO[C@@H](C)O[C@H]5[C@H](O)[C@H]3O)[C@H]3COC(=O)[C@H]23)OCO4)cc(OC)c1O` [etoposide]: in series [11], the “thermal activity as a result of hair-loss” value is “increased thermal activity in both the fronts and backs as a result of hair-loss”.
Consider `CC(N/C(=N\C#N)Nc1ccncc1)C(C)(C)C` (centres unmarked) [Pinacidil], for which the “thermogenesis in the genitalia” value in series [12] is given as “increase in thermogenesis”.
With VEGF, in series [13], the “thermogenesis in HUVEC cells” value is “induced thermogenesis”. In addition, the “thermogenesis in local area of injection” value in series [14] is “enhanced thermogenesis”.
